Reference: paper PMC4286194 (Biochemical Journal, 2015)

Columns and labels:
SIK2[T96Q] = target: T1, SIK2[T96Q] (Homo sapiens, UniProt Q9H0K1, T96Q); type: biochemical; details: gatekeeper threonine mutated to glutamine
T1 construct: GST; made in house; host or cells: HEK293 cells

CRTC3 = CRTC3 phosphorylation (immunoprecipitation, immunoblot); type: cell-based; details: RAW264.7 macrophages, 1 h
Description: RAW264.7 cells were cultured in DMEM containing 10% FBS, 2 mM glutamine and penicillin and streptomycin. […] Cells were treated for 1 h with or without inhibitors and then stimulated for up to 24 h with either 1 μg/ml Pam3CSK4 or 100 ng/ml LPS.
Cells were extracted in lysis buffer [50 mM Tris/HCl, pH 7.4, 1 mM EDTA, 1 mM EGTA, 50 mM NaF, 5 mM sodium pyrophosphate, 10 mM sodium β-glycerol 1-phosphate, 1 mM DTT, 1 mM sodium orthovanadate, 0.27 M sucrose, 1% (v/v) Triton X-100, 1 μg/ml aprotinin, 1 μg/ml leupeptin and 1 mM PMSF]. Cell extracts were clarified by centrifugation and protein concentrations were determined using the Bradford assay. To immunoprecipitate endogenous CRTC3, 1 mg of cell extract was incubated with 5 μg of anti-CRTC3 [13] covalently cross-linked on to Protein G–Sepharose. Immune complexes were washed three times with lysis buffer, eluted in 1% SDS and separated by SDS/PAGE. To detect proteins in cell lysates, 20 μg of protein extract was separated by SDS/PAGE. After transfer to PVDF membranes, proteins were detected by immunoblotting and visualized by treating the blots with ECL (GE Healthcare) followed by autoradiography.

IGF-1R = IGF-1R (Homo sapiens, UniProt P08069); test: Kinase profiling; type: biochemical
IRAK1 = IRAK1 (Homo sapiens, UniProt P51617); test: Kinase profiling; type: biochemical
Sequence of IRAK1 (P51617 whole entry): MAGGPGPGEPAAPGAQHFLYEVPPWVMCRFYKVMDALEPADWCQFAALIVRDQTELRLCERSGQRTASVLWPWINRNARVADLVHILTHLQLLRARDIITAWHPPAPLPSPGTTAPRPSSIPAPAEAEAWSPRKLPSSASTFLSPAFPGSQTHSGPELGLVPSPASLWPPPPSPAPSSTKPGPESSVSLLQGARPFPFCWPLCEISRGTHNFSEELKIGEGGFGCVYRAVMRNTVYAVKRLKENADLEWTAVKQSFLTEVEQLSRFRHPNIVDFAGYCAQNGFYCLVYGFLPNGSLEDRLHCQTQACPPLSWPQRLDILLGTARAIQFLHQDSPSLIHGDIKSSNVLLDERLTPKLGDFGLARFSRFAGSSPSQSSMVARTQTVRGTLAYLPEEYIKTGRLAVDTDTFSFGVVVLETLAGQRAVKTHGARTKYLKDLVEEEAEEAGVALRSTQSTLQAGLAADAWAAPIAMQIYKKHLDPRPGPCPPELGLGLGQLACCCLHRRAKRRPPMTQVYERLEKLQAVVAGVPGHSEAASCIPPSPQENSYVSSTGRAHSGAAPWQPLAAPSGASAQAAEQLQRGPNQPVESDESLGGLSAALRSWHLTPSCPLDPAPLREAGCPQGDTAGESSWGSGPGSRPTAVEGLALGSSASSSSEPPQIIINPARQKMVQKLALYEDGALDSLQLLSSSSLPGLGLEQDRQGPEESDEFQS

MAPKAP-K3 = MAPKAP-K3 (Homo sapiens, UniProt Q16644); test: Kinase profiling; type: biochemical
Sequence of MAPKAP-K3 (Q16644 whole entry): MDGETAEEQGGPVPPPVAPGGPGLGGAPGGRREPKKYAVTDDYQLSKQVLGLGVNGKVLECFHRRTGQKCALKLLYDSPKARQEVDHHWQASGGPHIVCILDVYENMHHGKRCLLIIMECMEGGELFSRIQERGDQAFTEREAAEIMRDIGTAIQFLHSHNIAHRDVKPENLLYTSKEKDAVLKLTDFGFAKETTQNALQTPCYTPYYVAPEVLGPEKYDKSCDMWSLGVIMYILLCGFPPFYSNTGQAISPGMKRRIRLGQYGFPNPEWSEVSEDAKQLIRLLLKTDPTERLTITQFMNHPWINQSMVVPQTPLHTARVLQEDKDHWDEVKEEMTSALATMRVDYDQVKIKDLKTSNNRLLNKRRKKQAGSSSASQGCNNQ

PKC alpha = PKC alpha (Homo sapiens, UniProt P17252); test: Kinase profiling; type: biochemical
PKC zeta = target: T2, PKC zeta (Homo sapiens, UniProt Q05513); test: Kinase profiling; type: biochemical
T2 sequence (Q05513 1-592): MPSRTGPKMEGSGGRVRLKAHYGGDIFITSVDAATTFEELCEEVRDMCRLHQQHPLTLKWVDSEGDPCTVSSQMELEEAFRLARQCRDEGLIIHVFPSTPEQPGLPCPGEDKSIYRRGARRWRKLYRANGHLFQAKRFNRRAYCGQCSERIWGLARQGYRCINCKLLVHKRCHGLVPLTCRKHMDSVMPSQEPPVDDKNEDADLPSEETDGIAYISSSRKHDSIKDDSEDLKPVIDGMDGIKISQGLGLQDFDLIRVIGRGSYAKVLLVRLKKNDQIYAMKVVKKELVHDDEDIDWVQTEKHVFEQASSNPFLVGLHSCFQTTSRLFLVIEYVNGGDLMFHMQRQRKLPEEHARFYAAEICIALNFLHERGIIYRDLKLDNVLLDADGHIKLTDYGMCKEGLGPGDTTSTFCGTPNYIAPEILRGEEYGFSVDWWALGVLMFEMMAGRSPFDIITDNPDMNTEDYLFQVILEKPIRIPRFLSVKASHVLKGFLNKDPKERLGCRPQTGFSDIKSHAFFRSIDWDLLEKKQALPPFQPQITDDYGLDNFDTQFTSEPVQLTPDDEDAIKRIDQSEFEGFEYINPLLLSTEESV

SGK1 = target: T3, SGK1 (Homo sapiens, UniProt O00141); test: Kinase profiling; type: biochemical
T3 sequence (O00141 1-431): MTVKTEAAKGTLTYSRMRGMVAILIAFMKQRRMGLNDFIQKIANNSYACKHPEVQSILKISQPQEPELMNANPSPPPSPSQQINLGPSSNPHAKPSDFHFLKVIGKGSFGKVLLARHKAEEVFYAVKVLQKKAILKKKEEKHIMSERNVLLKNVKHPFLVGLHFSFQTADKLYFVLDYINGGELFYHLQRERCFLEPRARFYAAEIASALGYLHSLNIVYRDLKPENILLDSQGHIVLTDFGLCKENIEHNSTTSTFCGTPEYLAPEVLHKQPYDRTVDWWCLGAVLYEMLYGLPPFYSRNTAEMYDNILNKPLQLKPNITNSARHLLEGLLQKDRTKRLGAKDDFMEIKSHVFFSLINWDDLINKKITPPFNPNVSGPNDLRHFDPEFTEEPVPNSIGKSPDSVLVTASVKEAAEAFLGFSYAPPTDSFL

SmMLCK = SmMLCK (Homo sapiens, UniProt Q15746); test: Kinase profiling; type: biochemical
Sequence of SmMLCK (Q15746 923-1914): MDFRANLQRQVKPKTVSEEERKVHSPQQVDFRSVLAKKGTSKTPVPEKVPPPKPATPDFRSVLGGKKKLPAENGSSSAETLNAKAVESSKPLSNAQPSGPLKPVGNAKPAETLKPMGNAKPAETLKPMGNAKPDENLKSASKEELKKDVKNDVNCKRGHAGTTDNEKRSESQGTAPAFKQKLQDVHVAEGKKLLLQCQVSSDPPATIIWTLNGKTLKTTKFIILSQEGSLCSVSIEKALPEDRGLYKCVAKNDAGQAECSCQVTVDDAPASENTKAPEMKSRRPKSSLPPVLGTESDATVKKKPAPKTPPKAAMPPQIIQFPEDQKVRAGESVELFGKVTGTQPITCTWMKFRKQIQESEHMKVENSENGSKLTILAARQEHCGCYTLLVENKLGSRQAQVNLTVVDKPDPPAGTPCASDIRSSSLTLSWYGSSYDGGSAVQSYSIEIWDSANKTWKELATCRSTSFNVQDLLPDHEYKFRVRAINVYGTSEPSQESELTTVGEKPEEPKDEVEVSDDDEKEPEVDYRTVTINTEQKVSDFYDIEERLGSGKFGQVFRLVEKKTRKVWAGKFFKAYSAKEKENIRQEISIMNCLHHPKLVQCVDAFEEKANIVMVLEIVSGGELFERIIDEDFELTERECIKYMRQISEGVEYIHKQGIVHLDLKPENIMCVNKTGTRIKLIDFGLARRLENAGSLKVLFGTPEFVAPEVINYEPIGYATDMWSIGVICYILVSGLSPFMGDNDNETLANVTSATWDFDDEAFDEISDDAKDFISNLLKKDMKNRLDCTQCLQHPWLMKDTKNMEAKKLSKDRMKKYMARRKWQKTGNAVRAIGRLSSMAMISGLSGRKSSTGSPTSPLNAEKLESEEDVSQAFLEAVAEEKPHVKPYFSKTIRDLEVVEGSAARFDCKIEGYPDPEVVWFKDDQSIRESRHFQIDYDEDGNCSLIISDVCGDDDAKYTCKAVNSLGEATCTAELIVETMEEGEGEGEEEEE

TAO1 = target: T4, TAO1 (Homo sapiens, UniProt Q7L7X3); test: Kinase profiling; type: biochemical
T4 sequence (Q7L7X3 1-1001): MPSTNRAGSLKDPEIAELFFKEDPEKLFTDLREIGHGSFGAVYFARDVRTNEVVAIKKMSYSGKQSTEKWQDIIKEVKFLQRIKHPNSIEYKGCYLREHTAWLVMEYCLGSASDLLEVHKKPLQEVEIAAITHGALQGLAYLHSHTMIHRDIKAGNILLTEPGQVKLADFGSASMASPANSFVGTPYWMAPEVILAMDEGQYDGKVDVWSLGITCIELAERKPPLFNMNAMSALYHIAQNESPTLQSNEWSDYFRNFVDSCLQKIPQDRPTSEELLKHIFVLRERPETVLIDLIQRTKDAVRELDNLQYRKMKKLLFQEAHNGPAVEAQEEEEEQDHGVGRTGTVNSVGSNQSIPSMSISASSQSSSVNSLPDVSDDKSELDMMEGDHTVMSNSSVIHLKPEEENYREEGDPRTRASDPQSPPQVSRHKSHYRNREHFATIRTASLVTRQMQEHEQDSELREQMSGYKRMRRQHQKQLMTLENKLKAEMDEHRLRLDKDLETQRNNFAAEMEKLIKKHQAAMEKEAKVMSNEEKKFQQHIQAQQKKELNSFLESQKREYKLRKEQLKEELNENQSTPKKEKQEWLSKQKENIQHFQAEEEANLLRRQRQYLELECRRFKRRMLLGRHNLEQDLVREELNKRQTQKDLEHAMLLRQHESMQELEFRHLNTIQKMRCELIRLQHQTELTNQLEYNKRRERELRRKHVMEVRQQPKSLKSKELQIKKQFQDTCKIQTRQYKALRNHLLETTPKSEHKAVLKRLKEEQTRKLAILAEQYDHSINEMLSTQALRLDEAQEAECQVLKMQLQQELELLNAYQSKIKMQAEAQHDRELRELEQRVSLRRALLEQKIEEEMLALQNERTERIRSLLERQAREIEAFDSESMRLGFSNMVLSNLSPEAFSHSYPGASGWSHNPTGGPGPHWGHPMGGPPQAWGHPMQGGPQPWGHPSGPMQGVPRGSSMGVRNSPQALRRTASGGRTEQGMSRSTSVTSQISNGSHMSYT

Sequence of IGF-1R (P08069 31-1367): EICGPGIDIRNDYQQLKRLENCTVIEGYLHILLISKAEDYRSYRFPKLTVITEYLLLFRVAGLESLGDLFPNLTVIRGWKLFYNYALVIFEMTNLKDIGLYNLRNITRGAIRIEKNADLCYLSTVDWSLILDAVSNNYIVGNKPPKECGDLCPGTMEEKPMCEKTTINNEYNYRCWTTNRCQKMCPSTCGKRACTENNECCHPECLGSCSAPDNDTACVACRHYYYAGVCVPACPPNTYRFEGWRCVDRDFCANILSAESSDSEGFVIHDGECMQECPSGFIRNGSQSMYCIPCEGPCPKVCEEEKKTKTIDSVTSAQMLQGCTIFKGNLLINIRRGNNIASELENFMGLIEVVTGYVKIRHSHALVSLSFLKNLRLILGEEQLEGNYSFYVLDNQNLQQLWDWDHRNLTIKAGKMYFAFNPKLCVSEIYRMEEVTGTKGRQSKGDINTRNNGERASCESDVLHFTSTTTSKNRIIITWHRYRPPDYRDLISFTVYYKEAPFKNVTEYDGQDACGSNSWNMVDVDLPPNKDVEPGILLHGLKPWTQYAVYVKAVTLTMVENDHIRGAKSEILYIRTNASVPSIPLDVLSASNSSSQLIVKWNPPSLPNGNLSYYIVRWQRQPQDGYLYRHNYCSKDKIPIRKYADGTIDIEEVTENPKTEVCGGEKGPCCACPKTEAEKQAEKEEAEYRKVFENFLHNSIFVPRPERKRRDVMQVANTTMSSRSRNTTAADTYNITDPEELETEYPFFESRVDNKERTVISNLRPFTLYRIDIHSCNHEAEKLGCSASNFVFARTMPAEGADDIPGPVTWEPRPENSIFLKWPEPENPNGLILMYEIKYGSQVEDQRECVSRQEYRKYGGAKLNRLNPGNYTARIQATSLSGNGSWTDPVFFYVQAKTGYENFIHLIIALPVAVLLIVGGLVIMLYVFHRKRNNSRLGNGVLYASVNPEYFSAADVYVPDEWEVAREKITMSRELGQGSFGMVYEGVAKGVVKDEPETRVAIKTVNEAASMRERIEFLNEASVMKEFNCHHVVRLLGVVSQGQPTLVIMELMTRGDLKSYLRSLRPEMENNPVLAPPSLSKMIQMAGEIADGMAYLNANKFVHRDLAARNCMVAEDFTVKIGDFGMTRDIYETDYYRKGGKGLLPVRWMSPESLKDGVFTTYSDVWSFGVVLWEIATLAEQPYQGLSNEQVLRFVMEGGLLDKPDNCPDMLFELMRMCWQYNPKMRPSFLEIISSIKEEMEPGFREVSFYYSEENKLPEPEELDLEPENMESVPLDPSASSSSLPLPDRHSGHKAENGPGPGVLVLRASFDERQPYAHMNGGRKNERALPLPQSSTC
T1 sequence (Q9H0K1 whole entry T96Q): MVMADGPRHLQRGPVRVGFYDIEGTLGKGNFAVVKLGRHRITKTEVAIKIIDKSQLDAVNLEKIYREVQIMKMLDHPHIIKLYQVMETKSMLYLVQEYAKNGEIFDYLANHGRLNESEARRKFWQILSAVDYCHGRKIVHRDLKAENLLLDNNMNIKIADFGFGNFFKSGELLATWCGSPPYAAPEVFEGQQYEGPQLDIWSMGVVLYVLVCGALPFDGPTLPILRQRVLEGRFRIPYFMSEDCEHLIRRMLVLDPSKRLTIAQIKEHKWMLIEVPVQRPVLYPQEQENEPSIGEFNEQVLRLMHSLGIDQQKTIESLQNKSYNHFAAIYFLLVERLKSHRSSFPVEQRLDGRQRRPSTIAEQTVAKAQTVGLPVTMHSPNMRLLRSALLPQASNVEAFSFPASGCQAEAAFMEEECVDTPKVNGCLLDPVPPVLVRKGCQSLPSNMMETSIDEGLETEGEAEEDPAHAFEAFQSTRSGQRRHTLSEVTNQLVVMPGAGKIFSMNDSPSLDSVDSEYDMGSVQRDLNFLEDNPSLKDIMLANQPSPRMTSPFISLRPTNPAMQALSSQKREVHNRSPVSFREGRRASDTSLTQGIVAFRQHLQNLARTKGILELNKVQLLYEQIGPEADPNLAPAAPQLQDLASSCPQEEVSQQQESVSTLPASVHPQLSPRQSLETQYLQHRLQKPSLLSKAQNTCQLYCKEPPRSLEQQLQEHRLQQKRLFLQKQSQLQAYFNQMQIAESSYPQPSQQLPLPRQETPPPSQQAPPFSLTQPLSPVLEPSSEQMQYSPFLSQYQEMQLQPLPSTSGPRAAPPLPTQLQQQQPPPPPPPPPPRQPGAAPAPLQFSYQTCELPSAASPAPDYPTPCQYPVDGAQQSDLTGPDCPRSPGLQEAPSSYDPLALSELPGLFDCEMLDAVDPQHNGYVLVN

| Compound | Loss of sensitivity of SIK2[T96Q] versus wild-type (SIK2[T96Q]) | Phosphorylation of CRTC3 at Ser162 and Ser370 (CRTC3) | remaining activity at 0.1 µM (IGF-1R) [%] | remaining activity at 1 µM (IGF-1R) [%] | remaining activity at 0.1 µM (IRAK1) [%] | remaining activity at 1 µM (IRAK1) [%] | remaining activity at 0.1 µM (MAPKAP-K3) [%] | remaining activity at 1 µM (MAPKAP-K3) [%] | remaining activity at 0.1 µM (PKC alpha) [%] | remaining activity at 1 µM (PKC alpha) [%] | remaining activity at 0.1 µM (PKC zeta) [%] | remaining activity at 1 µM (PKC zeta) [%] | remaining activity at 0.1 µM (SGK1) [%] | remaining activity at 1 µM (SGK1) [%] | remaining activity at 0.1 µM (SmMLCK) [%] | remaining activity at 1 µM (SmMLCK) [%] | remaining activity at 0.1 µM (TAO1; 0.1 µM) [%] | remaining activity at 1 µM (TAO1) [%] |
| --- | --- | --- | --- | --- | --- | --- | --- | --- | --- | --- | --- | --- | --- | --- | --- | --- | --- | --- |
| Cc1nc(Nc2ncc(C(=O)Nc3c(C)cccc3Cl)s2)cc(N2CCN(CCO)CC2)n1 [Dasatinib] | 100–1000 fold | dephosphorylation | 107 ± 6 | 98 ± 7 | 96 ± 1 | 108 ± 3 | 117 ± 3 | 132 ± 1 | 98 ± 3 | 105 ± 14 | 101 ± 3 | 109 ± 7 | 87 ± 11 | 96 ± 7 | 111 ± 4 | 111 ± 7 | 120 ± 9 | 95 ± 7 |
| COc1cc(Nc2c(C#N)cnc3cc(OCCCN4CCN(C)CC4)c(OC)cc23)c(Cl)cc1Cl [Bosutinib, bosutinib] | 100–1000 fold | dephosphorylation | 89 ± 8 | 79 ± 4 | 77 ± 3 | 65 | 113 ± 1 | 103 ± 8 | 96 ± 5 | 103 ± 3 | 91 ± 2 | 102 ± 4 | 98 ± 20 | 100 ± 2 | 88 ± 2 | 27 ± 1 | – | 102 ± 7 |
